Test: Release profile of fluorescent molecules from PEG-PLGA double-emulsion hairy microparticles
Format: physicochemical
Conditions: 0.1 M PBS buffer pH 7.4, 37° C., fluorescence in supernatant
Text: FIGS. 2A-2B. Simulated drug releasing profile from PEG-PLGA double emulsions-based hairy microparticles using two different fluorescent molecules. (FIG. 2A) Loaded Alexa Fluor® 647 (1025.2 g/mol) and (FIG. 2B) GFP (27 kDa) were released depending on the time and detected in supernatant.
To test drug encapsulating and releasing properties, we use two different sizes of fluorescent molecules (Alexa Fluor® 647, 1025.2 g/mol and GFP, 27 kDa). We load these molecules into most inner phase and generate double emulsions through two-step sequential emulsification. After fully drying of DCM, hairy microparticles are collected and washed 3 times by centrifugation at 3000 rcf for 1 min with deionized water. To determine the release profile, we place a sample in 0.1 M PBS buffer (pH=7.4, 5 ml total) at 37° C. and monitor the release of the fluorescent molecules. The fluorescent intensity in supernatant are measured using a BioTek plate reader. FIGS. 2A-2B show the release profile of both Alexa Fluor 647 and GFP. Based on the fluorescent intensity of end point, about 22-26% of Alexa Fluor 647 and 19-35% of GFP are released (compared to the amount injected into the emulsions) from microcapsules.

- released from microcapsules, compared to the amount injected into the emulsions, based on fluorescent intensity of end point: 22-26%
Substance: Alexa Fluor 647

Source: patent publication US20250332113A1, “ADHESIVE PARTICLES FOR ACTIVE DELIVERY” (THE TRUSTEES OF THE UNIVERSITY OF PENNSYLVANIA, priority 2022, published 2025)
